Experimental data reported in patent US11066668B2, “Compositions and methods for modulation of IKBKAP splicing” (Ionis Pharmaceuticals, Inc., priority 2012, dated 2021).
Oligonucleotides are written 5' to 3', each unit as a sugar letter and its base; * is a phosphorothioate linkage, no mark a phosphodiester; rarer units and linkages stand in square brackets, end groups in braces. Plain capitals give the bases only. e = 2'-O-(2-methoxyethyl) (MOE); [5mC] = 5-methylcytosine

Tested on: IKBKAP pre-mRNA (mt19-21 minigene)
Test: Exon 20 inclusion in HEK-293 cells harboring the mt19-21 IKBKAP minigene (RT-PCR)
Type: cell-based, human
Conditions: HEK-293 with mt19-21 minigene; for % inclusion (exon 20): 0.007 nmol oligonucleotide by electroporation, RT-PCR two days later; for effect on exon 20 inclusion/skipping, in words: 0.007 nmol oligonucleotide
Method: Antisense oligonucleotides were designed targeting a human IKBKAP nucleic acid and were tested for their effects on IKBKAP pre-mRNA in vitro. Together, the overlapping antisense oligonucleotides spanned the entire 74-nucleotide region of the IKBKAP exon 20 sequence, as well as the 100-nucleotide intronic regions immediately upstream and downstream of exon 20. The antisense oligonucleotides are presented in Table 1, and were designed as uniform 2′-O-methoxyethyl ribose (MOE) oligonucleotides with phosphate backbones. Each oligonucleotide is 15 nucleosides in length. All cytosine residues throughout the oligonucleotide are 5-methylcytosines. ‘Start Site’ indicates the 5′-most nucleoside to which the oligonucleotide is targeted in the human gene sequence. “Stop site” indicates the 3′-most nucleoside to which the oligonucleotide is targeted in the human gene sequence. Each oligonucleotide listed in Table 1 is targeted to the human IKBKAP genomic sequence (the complement of GENBANK Accession No NT_008470.16 truncated from nucleotides 13290828 to Ser. No. 13/358,424, designated herein as SEQ ID NO: 1). ISIS 414161 has one mismatch with SEQ ID NO: 1.
Cultured HEK-293 cells harboring the mt19-21 minigene vector construct at a density of 7×10^5 cells per well were transfected using electroporation (Gene Pulsar II apparatus, Bio-Rad) with 0.007 nmol antisense oligonucleotide, as previously described (Hua, Y., et al., 2007. PLoS Biol 5:e73). […] These oligonucleotides served as controls for non-specific effects of uniform MOE oligonucleotides with phosphate backbones. Cells harboring the wt19-21 minigene and the mt19-21 minigene alone were also cultured and were used as controls for exon 20 inclusion levels. Two days later, cDNA synthesized from total RNA extracted from HEK-293 cells was amplified using the forward primer pCDNAF and reverse primer sequence IKAP21R4 to assay the splicing pattern of expressed RNAs by RT-PCR. To calculate exon 20 inclusion levels, the PCR amplicons were labeled with α^32P-dCTP. The PCR products were then separated by native PAGE, followed by phosphorimage analysis on a FUJIFILM FLA-5100 instrument (Fuji Medical Systems USA Inc.). The band intensities were quantified using Multi Gauge software Version 2.3 (FUJIFILM), and values were normalized for the G+C content according to the DNA sequence.
Treatment with antisense oligonucleotides targeting the 3′ and 5′ splice sites caused increased skipping of exon 20.
Additional oligonucleotides were designed targeting the first 30-nucleotide stretch of ISS-40. These oligonucleotides were designed by choosing sequences shifted in one nucleotide increments upstream and downstream (i.e., a “microwalk”) of ISS-40, starting from the +6 position in exon 20. The antisense oligonucleotides are presented in Table 2 and FIG. 4D, and were designed as uniform 2′-O-methoxyethyl ribose (MOE) oligonucleotides with phosphate backbones. Each oligonucleotide is 20 nucleosides in length. All cytosine residues throughout the oligonucleotide are 5-methylcytosines. ‘Start Site’ indicates the 5′-most nucleoside to which the oligonucleotide is targeted in the human gene sequence. “Stop site” indicates the 3′-most nucleoside to which the oligonucleotide is targeted in the human gene sequence. Each oligonucleotide listed in Table 2 is targeted to intron 20 of the human IKBKAP genomic sequence (the complement of GENBANK Accession No NT_008470.16 truncated from nucleotides 13290828 to Ser. No. 13/358,424, designated herein as SEQ ID NO: 1). These oligonucleotides were tested in vitro.
Cultured HEK-293 cells harboring the mt19-21 minigene vector construct at a density of 7×10^5 cells per well were transfected using electroporation (Gene Pulsar II apparatus, Bio-Rad) with 0.007 nmol antisense oligonucleotide, as previously described (Hua, Y., et al., 2007. PLoS Biol 5:e73). […]

Row | Substance | % inclusion (exon 20) (Table 1) [%] | effect on exon 20 inclusion/skipping, in words | % inclusion (exon 20) (Table 2 (microwalk experiment)) [%]
1 | ISIS 414157: uniform 2′-MOE 15-mer, phosphate backbone; CACTTCCGAATCTGA, SEQ ID NO 36, exon 20 (e[5mC]eAe[5mC]eTeTe[5mC]e[5mC]eGeAeAeTe[5mC]eTeGeA; splice-switching) | 15 | – | –
2 | ISIS 414158: uniform 2′-MOE 15-mer, phosphate backbone; CCAACCACTTCCGAA, SEQ ID NO 37, exon 20 (e[5mC]e[5mC]eAeAe[5mC]e[5mC]eAe[5mC]eTeTe[5mC]e[5mC]eGeAeA; splice-switching) | 1 | – | –
3 | ISIS 414159: uniform 2′-MOE 15-mer, phosphate backbone; TTGTCCAACCACTTC, SEQ ID NO 38, exon 20 (eTeTeGeTe[5mC]e[5mC]eAeAe[5mC]e[5mC]eAe[5mC]eTeTe[5mC]; splice-switching) | 2 | – | –
4 | ISIS 414160: uniform 2′-MOE 15-mer, phosphate backbone; TACAATGGCGCTTAC, SEQ ID NO 39, intron 20 (eTeAe[5mC]eAeAeTeGeGe[5mC]eGe[5mC]eTeTeAe[5mC]; splice-switching) | 14 | – | –
5 | ISIS 414161: uniform 2′-MOE 15-mer, phosphate backbone; AACAGTACAATGGCG, SEQ ID NO 40, intron 20; one mismatch with SEQ ID NO 1 (eAeAe[5mC]eAeGeTeAe[5mC]eAeAeTeGeGe[5mC]eG) | 88 | markedly increased inclusion of exon 20 | 79
6 | ISIS 414162: uniform 2′-MOE 15-mer, phosphate backbone; TCGCAAACAGTACAA, SEQ ID NO 41, intron 20 (eTe[5mC]eGe[5mC]eAeAeAe[5mC]eAeGeTeAe[5mC]eAeA; splice-switching) | 79 | markedly increased inclusion of exon 20 | 82
7 | ISIS 414163: uniform 2′-MOE 15-mer, phosphate backbone; ACTAGTCGCAAACAG, SEQ ID NO 42, intron 20 (eAe[5mC]eTeAeGeTe[5mC]eGe[5mC]eAeAeAe[5mC]eAeG; splice-switching) | 74 | markedly increased inclusion of exon 20 | 74
8 | ISIS 414164: uniform 2′-MOE 15-mer, phosphate backbone; AGCTAACTAGTCGCA, SEQ ID NO 43, intron 20 (eAeGe[5mC]eTeAeAe[5mC]eTeAeGeTe[5mC]eGe[5mC]eA; splice-switching) | 78 | markedly increased inclusion of exon 20 | 74
9 | ISIS 414165: uniform 2′-MOE 15-mer, phosphate backbone; TCACAAGCTAACTAG, SEQ ID NO 44, intron 20 (eTe[5mC]eAe[5mC]eAeAeGe[5mC]eTeAeAe[5mC]eTeAeG; splice-switching) | 66 | markedly increased inclusion of exon 20 | 64
10 | ISIS 414166: uniform 2′-MOE 15-mer, phosphate backbone; ATAAATCACAAGCTA, SEQ ID NO 45, intron 20 (eAeTeAeAeAeTe[5mC]eAe[5mC]eAeAeGe[5mC]eTeA; splice-switching) | 40 | markedly increased inclusion of exon 20 | 38
11 | ISIS 414167: uniform 2′-MOE 15-mer, phosphate backbone; CACACATAAATCACA, SEQ ID NO 46, intron 20 (e[5mC]eAe[5mC]eAe[5mC]eAeTeAeAeAeTe[5mC]eAe[5mC]eA; splice-switching) | 13 | significantly decreased the levels of the included RNA isoform | –
12 | ISIS 414168: uniform 2′-MOE 15-mer, phosphate backbone; GTCTTCACACATAAA, SEQ ID NO 47, intron 20 (eGeTe[5mC]eTeTe[5mC]eAe[5mC]eAe[5mC]eAeTeAeAeA; splice-switching) | 17 | significantly decreased the levels of the included RNA isoform | –
13 | ISIS 414169: uniform 2′-MOE 15-mer, phosphate backbone; TTATTGTCTTCACAC, SEQ ID NO 48, intron 20 (eTeTeAeTeTeGeTe[5mC]eTeTe[5mC]eAe[5mC]eAe[5mC]; splice-switching) | 21 | – | –
14 | ISIS 414170: uniform 2′-MOE 15-mer, phosphate backbone; AATACTTATTGTCTT, SEQ ID NO 49, intron 20 (eAeAeTeAe[5mC]eTeTeAeTeTeGeTe[5mC]eTeT; splice-switching) | 32 | – | –
15 | ISIS 414171: uniform 2′-MOE 15-mer, phosphate backbone; AATAAAATACTTATT, SEQ ID NO 50, intron 20 (eAeAeTeAeAeAeAeTeAe[5mC]eTeTeAeTeT; splice-switching) | 32 | – | –
16 | ISIS 414172: uniform 2′-MOE 15-mer, phosphate backbone; ATTGTAATAAAATAC, SEQ ID NO 51, intron 20 (eAeTeTeGeTeAeAeTeAeAeAeAeTeAe[5mC]; splice-switching) | 31 | – | –
17 | ISIS 414173: uniform 2′-MOE 15-mer, phosphate backbone; TCGAAATTGTAATAA, SEQ ID NO 52, intron 20 (eTe[5mC]eGeAeAeAeTeTeGeTeAeAeTeAeA; splice-switching) | 31 | – | –
18 | ISIS 414174: uniform 2′-MOE 15-mer, phosphate backbone; AGTTCTCGAAATTGT, SEQ ID NO 53, intron 20 (eAeGeTeTe[5mC]eTe[5mC]eGeAeAeAeTeTeGeT; splice-switching) | 29 | – | –
19 | ISIS 414175: uniform 2′-MOE 15-mer, phosphate backbone; TTTTAAGTTCTCGAA, SEQ ID NO 54, intron 20 (eTeTeTeTeAeAeGeTeTe[5mC]eTe[5mC]eGeAeA; splice-switching) | 27 | – | –
20 | ISIS 414176: uniform 2′-MOE 15-mer, phosphate backbone; CATAATTTTAAGTTC, SEQ ID NO 55, intron 20 (e[5mC]eAeTeAeAeTeTeTeTeAeAeGeTeTe[5mC]; splice-switching) | 31 | – | –
21 | ISIS 414177: uniform 2′-MOE 15-mer, phosphate backbone; CTTTTCATAATTTTA, SEQ ID NO 56, intron 20 (e[5mC]eTeTeTeTe[5mC]eAeTeAeAeTeTeTeTeA; splice-switching) | 25 | – | –
22 | ISIS 421991: uniform 2′-MOE 20-mer, phosphate backbone; TCGCAAACAGTACAATGGCG, SEQ ID NO 60, intron 20 (eTe[5mC]eGe[5mC]eAeAeAe[5mC]eAeGeTeAe[5mC]eAeAeTeGeGe[5mC]eG; splice-switching) | – | – | 91
23 | ISIS 421993: uniform 2′-MOE 20-mer, phosphate backbone; AGTCGCAAACAGTACAATGG, SEQ ID NO 62, intron 20 (eAeGeTe[5mC]eGe[5mC]eAeAeAe[5mC]eAeGeTeAe[5mC]eAeAeTeGeG; splice-switching) | – | – | 87
24 | ISIS 421994: uniform 2′-MOE 20-mer, phosphate backbone; TAGTCGCAAACAGTACAATG, SEQ ID NO 63, intron 20 (eTeAeGeTe[5mC]eGe[5mC]eAeAeAe[5mC]eAeGeTeAe[5mC]eAeAeTeG; splice-switching) | – | – | 91
